Results: patent US9877961B2, “Anticoagulant reversal agents” (PEROSPHERE INC., priority 2011, dated 2018)
Marks after values point to notes of the source that are not given here.

Columns and labels:
[1] = assumption used for Table 3; cited from earlier work
[2] = system: dabigatran (PRADAXA®) anticoagulation; experiment: DAP reversal of dabigatran (PRADAXA®) anticoagulation in vivo, aPTT; parameters: species or system rat; conditions: 40 mg/kg oral gavage, 2 hours; baseline 43 seconds
Source text: The activated partial thromboplastin time (aPTT) assay is an assay that measures how long it takes for the blood to clot. Blood samples are collected for direct measurement or in tubes with oxalate and citrate to arrest coagulation by calcium until the assay can be performed. In the assay, a phospholipid, an activator (silica, celite, kaolin, ellagic acid, etc.), and calcium are mixed into the plasma to induce coagulation. The assay measures the time until a thrombus (clot) forms.
A male albino rat, weighing 430 g, was administered 40 mg/kg of PRADAXA® (20 mg PRADAXA®; overdose of PRADAXA®) by oral gavage.
Approximately 2 hours into PRADAXA® treatment, 200 mg/kg DAP (100 mg DAP) was administered as an intravenous bolus injection. Approximately 2 hours later, the rat was administered a dose of 100 mg/kg of DAP (50 mg DAP). In another hour, the rat was administered another dose of 100 mg/kg of DAP (50 mg DAP). aPTT was measured throughout the course of the entire treatment.

[3] = Binding of anticoagulants to DAP (DLS; summary Tables 2 and 3); conditions: lowest DAP:anticoagulant ratio with association above 50 nm apparent diameter in phosphate buffered saline
[4] = system: fondaparinux anticoagulation; experiment: DAP reversal of fondaparinux (ARIXTRA®) anticoagulation in vivo, chromogenic Factor Xa assay; parameters: species or system rat; conditions: fondaparinux s.c.; Xa kit; 200 mg/kg DAP was the lowest dose administered
Description: The anti-factor Xa assay directly measures anti-factor Xa activity. The methodology behind an anti-factor Xa assay is that patient plasma is added to a known amount of excess factor Xa and excess antithrombin. If a factor Xa inhibitor is present in the patient plasma, it will reduce the enzymatic activity of factor Xa. The amount of residual factor Xa is inversely proportional to the amount of anti-Xa agent in the plasma. The amount of residual factor Xa is detected by adding a chromogenic substrate that mimics the natural substrate of factor Xa, making residual factor Xa cleave it, releasing a colored compound that can be detected by a spectrophotometer. […] Results are given in anticoagulant concentration in units/mL of antifactor Xa, such that high values indicate high levels of anticoagulation and low values indicate low levels of anticoagulation.
5 mg/kg fondaparinux was administered subcutaneously to rats. 200 mg/kg DAP was administered intravenously after 2 hours. Activity was measured by chromogenic 510 k cleared Factor Xa Assay (Biophen) at 10, 20, 30 and 60 minutes after DAP administration.

[5] = cited from earlier work
[6] = system: Factor Xa; conditions: cited from earlier work
[7] = system: rivaroxaban anticoagulation; experiment: Rat tail transection bleeding assay, rivaroxaban; assay type: in vivo; conditions: rivaroxaban, oral; Bleeding assay; minimal in vivo reversal dose; assumes 60% oral bioavailability
Description: (§1) Rat tail bleeding assay or rat tail transection assay is an assay that measures blood loss, e.g., blood loss after drug administration. In one embodiment, where the effect of the compound of the invention (e.g., DAP) is being tested, at the Tmax of the anticoagulant, DAP is administered intravenously. After 20 minutes, rat tails are transected approximately 1 mm from the tip, placed in room temperature saline, and blood is collected for 30 minutes and weighed.
(§2) Three rats each were administered 2 mg of rivaroxaban. One rat received a sham reversal containing no DAP, the second received 2.5 mg of DAP, and the third received 12.5 mg DAP. A fourth fat received sham anticoagulant and reversal doses (“sham”). 20 minutes after the reversal dose, tails were transected 1 mm from the tip, placed in room temperature saline, and blood loss was collected for 30 minutes and then weighed.

[8] = system: apixaban (ELIQUIS®) anticoagulation; experiment: Rat tail transection bleeding assay, apixaban; assay type: in vivo; conditions: apixaban, oral; Bleeding assay; minimal in vivo reversal dose; assumes 50% oral bioavailability
Description: as §1, §2
Same procedures were used with 1.25 mg apixaban (ELIQUIS®) alone or in combination with 5 or 12.5 mg DAP; with 15.5 mg dabigatran etexilate (PRADAXA®) alone or in combination with 5 or 12.5 mg DAP; and with 5 mg edoxaban (LIXIANA®) alone or in combination with 12.5 mg DAP.

CCCCCCOC(=O)NC(=N)c1ccc(NCc2nc3cc(C(=O)N(CCC(=O)OCC)c4ccccn4)ccc3n2C)cc1.CS(=O)(=O)O [Dabigatran etexilate, β-Alanine, N-[[2-[[[4-[[[(hexyloxy)carbonyl]amino]iminomethyl]phenyl]amino]methyl]-1-methyl-1H-benzimidazol-5-yl]carbonyl]-N-2-pyridinyl-,ethyl ester, methanesulfonate]
oral bioavailability (assumed) [1]: 5%
aPTT after PRADAXA® administration [2]: 81 s

CO[C@H]1O[C@H](COS(=O)(=O)[O-])[C@@H](O[C@@H]2O[C@@H](C(=O)[O-])[C@@H](O[C@H]3O[C@H](COS(=O)(=O)[O-])[C@@H](O[C@@H]4O[C@H](C(=O)[O-])[C@@H](O[C@H]5O[C@H](COS(=O)(=O)[O-])[C@@H](O)[C@H](O)[C@H]5NS(=O)(=O)[O-])[C@H](O)[C@H]4O)[C@H](OS(=O)(=O)[O-])[C@H]3NS(=O)(=O)[O-])[C@H](O)[C@H]2OS(=O)(=O)[O-])[C@H](O)[C@H]1NS(=O)(=O)[O-].[Na+].[Na+].[Na+].[Na+].[Na+].[Na+].[Na+].[Na+].[Na+].[Na+] [Fondaparinux, methyl O-2-deoxy-6-O-sulfo-2-(sulfoamino)-α-D-glucopyranosyl-(1→4)-O-β-D-glucopyra-nuronosyl-(1→4)-O-2-deoxy-3,6-di-O-sulfo-2-(sulfoamino)-α-D-glucopyranosyl-(1→4)-O-2-O-sulfo-α-L-idopyranuronosyl-(1→4)-2-deoxy-6-O-sulfo-2-(sulfoamino)-α-D-glucopyranoside, decasodium salt]
DLS Binding Molar Ratio [DAP/drug] [3]: 3
Reversal Molar Ratio [DAP/drug] [4]: 130
time to peak steady-state plasma concentration ([5]; patients, 2.5 mg once daily, post-dose): approximately 3 hours
absolute bioavailability ([5]; subcutaneous injection): 100%
potentiation of innate neutralization of Factor Xa by ATIII [6]: about 300 times

O=C(NC[C@H]1CN(c2ccc(N3CCOCC3=O)cc2)C(=O)O1)c1ccc(Cl)s1 [Rivaroxaban, 5-Chloro-N-({(5S)-2-oxo-3-[4-(3-oxo-4-morpholinyl)phenyl]-1,3-oxazolidin-5-yl}methyl)-2-thiophenecarboxamide]
DLS Binding Molar Ratio [DAP/drug] [3]: 9
oral bioavailability (assumed) [1]: 60%
Reversal Molar Ratio [DAP/drug] [7]: 3*

COc1ccc(-n2nc(C(N)=O)c3c2C(=O)N(c2ccc(N4CCCCC4=O)cc2)CC3)cc1 [Apixaban, 1-(4-methoxyphenyl)-7-oxo-6-[4-(2-oxopiperidin-1-yl)phenyl]-4,5-dihydropyrazolo[5,4-c]pyridine-3-carboxamide]
DLS Binding Molar Ratio [DAP/drug] [3]: 10
oral bioavailability (assumed) [1]: 50%
Reversal Molar Ratio [DAP/drug] [8]: 8*
